Columns and labels:
[1] = target: T1, HCV polymerase 1A (Δ21 NS5B) (Hepatitis C virus genotype 1a, UniProt P27958); test: HCV Polymerase Inhibition Assay (1a); assay type: biochemical
T1 construct: 20 to 50nM Δ21 NS5B
How it was run: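 Δ21 NS5B reactions contained 20 μM CTP, 20 μM ATP, 1 μM ³H-UTP and 5 nM template RNA and ran for 2–4 h at room temperature. RNA was then spermine-precipitated, filter-captured and counted by scintillation. IC50 came from a tight-binding (Morrison) nonlinear fit of retained cpm against inhibitor concentration.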

[2] = target: T2, HCV polymerase 1B (Δ21 NS5B) (Hepatitis C virus genotype 1b, UniProt P26663); test: biochemical
T2 construct: 20 to 50nM Δ21 NS5B
T2 sequence (P26663 2420-2989, stated change not applied): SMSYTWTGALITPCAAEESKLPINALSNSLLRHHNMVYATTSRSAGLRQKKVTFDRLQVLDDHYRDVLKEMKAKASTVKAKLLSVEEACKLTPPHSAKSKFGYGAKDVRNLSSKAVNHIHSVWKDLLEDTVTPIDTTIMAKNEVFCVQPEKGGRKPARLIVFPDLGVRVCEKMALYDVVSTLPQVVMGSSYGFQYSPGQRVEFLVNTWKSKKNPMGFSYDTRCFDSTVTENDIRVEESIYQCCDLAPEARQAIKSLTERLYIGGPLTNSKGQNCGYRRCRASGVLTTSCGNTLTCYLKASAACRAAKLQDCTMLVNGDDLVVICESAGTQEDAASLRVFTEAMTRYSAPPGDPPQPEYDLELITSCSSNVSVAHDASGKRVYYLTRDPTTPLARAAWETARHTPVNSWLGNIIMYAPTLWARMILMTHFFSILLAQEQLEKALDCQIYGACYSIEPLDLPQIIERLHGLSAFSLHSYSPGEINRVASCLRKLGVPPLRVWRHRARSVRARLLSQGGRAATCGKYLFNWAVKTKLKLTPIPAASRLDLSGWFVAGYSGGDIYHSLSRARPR
How it was run: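 Inhibitor pre-incubated 15 min at room temperature with Δ21 NS5B (strain BK or H77, 20–50 nM), 60–125 μM GTP, 2 mM MnCl2, pH 7.4. Reaction started with 20 μM CTP, 20 μM ATP, 1 μM 3H-UTP and 5 nM template RNA, run 2–4 h at room temperature. Spermine-precipitated RNA filter-captured and scintillation-counted; IC50 from tight-binding equation fit.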

[3] = system: genotype 1b-Con1 subgenomic replicon cell line; test: microbe, parasite or virus in culture; assay type: cell-based, HCV; details: Hepatitis C virus, 72 h, read-out: EC50 1b
[4] = system: genotype 1a-H77 subgenomic replicon cell line; test: microbe, parasite or virus in culture; assay type: cell-based, HCV; details: Hepatitis C virus, 72 h, read-out: EC50 1a

T1 sequence (P27958 2421-2990, stated change not applied): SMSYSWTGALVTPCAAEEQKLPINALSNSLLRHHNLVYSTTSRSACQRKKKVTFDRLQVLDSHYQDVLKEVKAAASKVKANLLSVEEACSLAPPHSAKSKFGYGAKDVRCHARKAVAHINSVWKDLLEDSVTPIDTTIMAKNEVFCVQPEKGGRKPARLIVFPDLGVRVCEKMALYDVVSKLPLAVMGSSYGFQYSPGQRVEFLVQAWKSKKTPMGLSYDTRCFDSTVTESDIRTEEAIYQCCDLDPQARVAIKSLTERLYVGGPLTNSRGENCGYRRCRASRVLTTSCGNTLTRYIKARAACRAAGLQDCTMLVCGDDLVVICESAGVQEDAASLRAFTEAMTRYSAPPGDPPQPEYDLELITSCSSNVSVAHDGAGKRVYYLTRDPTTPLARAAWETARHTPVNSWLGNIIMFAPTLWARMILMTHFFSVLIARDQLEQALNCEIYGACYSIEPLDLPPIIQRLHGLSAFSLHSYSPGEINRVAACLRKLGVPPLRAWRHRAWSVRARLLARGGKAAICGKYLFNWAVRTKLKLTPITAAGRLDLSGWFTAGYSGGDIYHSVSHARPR

SMILES	IC50 [1] [nM]	melting point [°C]	IC50 [2] [nM]	EC50 [3] [nM]	EC50 [4] [nM]
CC(C)(C)c1cc(-n2ccc(=O)[nH]c2=O)cc(-c2ccc3cc(NS(C)(=O)=O)ccc3c2)c1Cl [IB-L0-2.14, N-(6-(3-tert-butyl-2-chloro-5-(2,4-dioxo-3,4-dihydropyrimidin-1(2H)-yl)phenyl)naphthalen-2-yl)methanesulfonamide]	< 10	> 280	< 10	10 to 100	100 to 1000
CCOc1c(-c2ccc3cc(NS(C)(=O)=O)ccc3c2)cc(-n2ccc(=O)[nH]c2=O)cc1C(C)(C)C [IB-L0-2.23, N-(6-(3-tert-butyl-5-(2,4-dioxo-3,4-dihydropyrimidin-1(2H)-yl)-2-ethoxyphenyl)naphthalen-2-yl)methanesulfonamide]	10 to 100	196 to 202	< 10	10 to 100	100 to 1000
COc1c(-c2ccc3cc(NS(C)(=O)=O)ccc3c2)cc(-n2ccc(=O)[nH]c2=O)cc1C(C)(C)CO [IB-L0-2.54, N-(6-(5-(2,4-dioxo-3,4-dihydropyrimidin-1(2H)-yl)-3-(1-hydroxy-2-methylpropan-2-yl)-2-methoxyphenyl)naphthalen-2-yl)methanesulfonamide]	< 10	256 to 257	10 to 100	10 to 100	10 to 100
COc1c(-c2ccc3cc(NS(C)(=O)=O)ccc3c2)cc(-n2ccc(=O)[nH]c2=O)cc1-c1ccc(C)o1 [IB-L0-2.58, N-(6-(5-(2,4-dioxo-3,4-dihydropyrimidin-1(2H)-yl)-2-methoxy-3-(5-methylfuran-2-yl)phenyl)naphthalen-2-yl)methanesulfonamide]	< 10	174 to 178	10 to 100	< 10	10 to 100
COc1c(-c2ccc3cc(NS(C)(=O)=O)ccc3c2)cc(-n2ccc(=O)[nH]c2=O)cc1C(F)(F)C(F)(F)F [IB-L0-2.60, N-(6-(5-(2,4-dioxo-3,4-dihydropyrimidin-1(2H)-yl)-2-methoxy-3-(perfluoroethyl)phenyl)naphthalen-2-yl)methanesulfonamide]	< 10	162 to 165	10 to 100	10 to 100	100 to 1000
COc1c(-c2ccoc2)cc(-n2ccc(=O)[nH]c2=O)cc1-c1ccc2cc(NS(C)(=O)=O)ccc2c1 [IB-L0-2.64, N-(6-(5-(2,4-dioxo-3,4-dihydropyrimidin-1(2H)-yl)-3-(furan-3-yl)-2-methoxyphenyl)naphthalen-2-yl)methanesulfonamide]	10 to 100	–	10 to 100	< 10	100 to 1000
COCC(C)(C)c1cc(-n2ccc(=O)[nH]c2=O)cc(-c2ccc3cc(NS(C)(=O)=O)ccc3c2)c1OC [IB-L0-2.66, N-(6-(5-(2,4-dioxo-3,4-dihydropyrimidin-1(2H)-yl)-2-methoxy-3-(1-methoxy-2-methylpropan-2-yl)phenyl)naphthalen-2-yl)methanesulfonamide]	10 to 100	–	10 to 100	10 to 100	100 to 1000
COc1c(-c2ccc3cc(NS(C)(=O)=O)ccc3c2)cc(-n2ccc(=O)[nH]c2=O)cc1S(C)(=O)=O [IB-L0-2.68, N-(6-(5-(2,4-dioxo-3,4-dihydropyrimidin-1(2H)-yl)-2-methoxy-3-(methylsulfonyl)phenyl)naphthalen-2-yl)methanesulfonamide]	10 to 100	–	10 to 100	100 to 1000	> 1000
COc1c(Br)cc(-n2ccc(=O)[nH]c2=O)cc1-c1ccc2cc(NS(C)(=O)=O)ccc2c1 [IB-L0-2.69, N-(6-(3-bromo-5-(2,4-dioxo-3,4-dihydropyrimidin-1(2H)-yl)-2-methoxyphenyl)naphthalen-2-yl)methanesulfonamide]	10 to 100	–	10 to 100	10 to 100	100 to 1000
COC(=O)C(C)(C)c1cc(-n2ccc(=O)[nH]c2=O)cc(-c2ccc3cc(NS(C)(=O)=O)ccc3c2)c1OC [IB-L0-2.70, methyl 2-(5-(2,4-dioxo-3,4-dihydropyrimidin-1(2H)-yl)-2-methoxy-3-(6-(methylsulfonamido)naphthalen-2-yl)phenyl)-2-methylpropanoate]	10 to 100	–	100 to 1000	100 to 1000	> 1000
COc1c(-c2ccccc2)cc(-n2ccc(=O)[nH]c2=O)cc1-c1ccc2cc(NS(C)(=O)=O)ccc2c1 [IB-L0-2.71, N-(6-(5-(2,4-dioxo-3,4-dihydropyrimidin-1(2H)-yl)-2-methoxy-biphenyl-3-yl)naphthalen-2-yl)methanesulfonamide]	100 to 1000	–	100 to 1000	10 to 100	100 to 1000
COC(=O)c1cc(-n2ccc(=O)[nH]c2=O)cc(-c2ccc3cc(NS(C)(=O)=O)ccc3c2)c1OC [IB-L0-2.72, methyl 5-(2,4-dioxo-3,4-dihydropyrimidin-1(2H)-yl)-2-methoxy-3-(6-(methylsulfonamido)naphthalen-2-yl)benzoate]	100 to 1000	–	100 to 1000	100 to 1000	> 1000
COc1c(-c2ccc3cc(NS(C)(=O)=O)ccc3c2)cc(-n2ccc(=O)[nH]c2=O)cc1-c1ccc(C)s1 [IB-L0-2.73, N-(6-(5-(2,4-dioxo-3,4-dihydropyrimidin-1(2H)-yl)-2-methoxy-3-(5-methylthiophen-2-yl)phenyl)naphthalen-2-yl)methanesulfonamide]	100 to 1000	–	100 to 1000	100 to 1000	100 to 1000
COc1c(-c2cccc(Cl)c2)cc(-n2ccc(=O)[nH]c2=O)cc1-c1ccc2cc(NS(C)(=O)=O)ccc2c1 [IB-L0-2.74, N-(6-(3′-chloro-5-(2,4-dioxo-3,4-dihydropyrimidin-1(2H)-yl)-2-methoxybiphenyl-3-yl)naphthalen-2-yl)methanesulfonamide]	100 to 1000	–	100 to 1000	100 to 1000	> 1000
COc1c(NS(C)(=O)=O)cc(-n2ccc(=O)[nH]c2=O)cc1-c1ccc2cc(NS(C)(=O)=O)ccc2c1 [IB-L0-2.75, N-(5-(2,4-dioxo-3,4-dihydropyrimidin-1(2H)-yl)-2-methoxy-3-(6-(methylsulfonamido)naphthalen-2-yl)phenyl)methanesulfonamide]	100 to 1000	–	> 1000	> 1000	> 1000
COc1c(-c2ccc3cc(NS(C)(=O)=O)ccc3c2)cc(-n2ccc(=O)[nH]c2=O)cc1C(C)(C)C(=O)O [IB-L0-2.77, 2-(5-(2,4-dioxo-3,4-dihydropyrimidin-1(2H)-yl)-2-methoxy-3-(6-(methylsulfonamido)naphthalen-2-yl)phenyl)-2-methylpropanoic acid]	> 1000	> 300	> 1000	–	–
COc1c(C#C[Si](C)(C)C)cc(-n2ccc(=O)[nH]c2=O)cc1-c1ccc2cc(NS(C)(=O)=O)ccc2c1 [IB-L0-2.78, N-(6-(5-(2,4-dioxo-3,4-dihydropyrimidin-1(2H)-yl)-2-methoxy-3-((trimethylsilyl)ethynyl)phenyl)naphthalen-2-yl)methanesulfonamide]	> 1000	175 to 178	> 1000	–	–
COc1c(N2Cc3ccc(NS(C)(=O)=O)cc3C2)cc(-n2ccc(=O)[nH]c2=O)cc1C(C)(C)C [IB-L0-2.79, N-(2-(3-tert-butyl-5-(2,4-dioxo-3,4-dihydropyrimidin-1(2H)-yl)-2-methoxyphenyl)isoindolin-5-yl)methanesulfonamide]	10 to 100	–	10 to 100	100 to 1000	100 to 1000

Source: patent publication US8501238B2, “Anti-infective agents and uses thereof” (priority 2007, dated 2013)
